Data as given in article PMC5673888, “Crystal structure of tripartite-type ABC transporter MacB from Acinetobacter baumannii” (Nature Communications, 2017).

Experiments:
MacB = target: T1, MacB (Acinetobacter baumannii, UniProt A0A0D8G707); assay: X-ray crystal structure of complex ([…] Å); conditions: co-crystallized with 10 mM ADPβS, 2 mM MgCl2; composite nucleotide-binding sites at NBD dimer interface
T1 construct: full length (664 residues inferred: stop at Leu655 removes C-terminal 10), N-terminal His6 tag, E. coli BL21(DE3), UDM-solubilized homodimer

[1] = target: MacB from Acinetobacter baumannii (Acinetobacter baumannii); assay: crystal structure; MacB in 0.05% UDM, 10 mM ADPβS and 2 mM MgCl2 added; sitting drop vapour diffusion at 25 °C, 1.2–1.3 M sodium citrate, 100 mM Na-HEPES pH 7.2; Se-Met crystal with 2 mM ATP instead of ADPβS; 3.4 Å

Row | Molecule | X-ray crystal structure of complex (3.4 Å) (MacB) | stoichiometry N [1]
1 | Nc1ncnc2c1ncn2[C@@H]1O[C@H](COP(=O)(O)OP(=O)(O)S)[C@@H](O)[C@H]1O (some centres unmarked) [ADPβS] | MacB was crystallized in the presence of adenosine-5′-(β-thio)-diphosphate (ADPβS) | –
2 | MacB from Acinetobacter baumannii (from UniProt A0A0D8G707 1-664) (natural protein) | – | 2
